Reference: patent US20250332180A1, “CANNABINOIDS AND IL-15 ACTIVATE NK CELLS” (The Regents of the University of California, priority 2022, published 2025)

What was measured:
[1] = system: anti-proliferative effects of radiation therapy; conditions: previously reported; cited from earlier work
[2] = system: OSCCs; test: Cell death assay (PI staining, flow cytometry); type: cell-based, human; conditions: CDDP 50 μg/mL, 24 hours
Description: No differences between untreated tumor cells and those treated with the DMSO vehicle alone in cell count or the amount of cell death in OSCCs and OSCSCs. […] Proportion of the live cells that had lost forward and side scatter were determined indicating decreased viability of the cells. In addition, the numbers of viable cells were determined after PI staining followed by flow cytometric analysis (FIG. 2A). OSCC tumor cells were treated as in FIG. 2A and the cells were analyzed by flow cytometry to determine the proportion of the live cells that had lost forward and side scatter indicating decreased viability of the cells (FIG. 2B) and the numbers of viable OSCC tumor cells were determined after PI staining followed by flow cytometric analysis (FIG. 2C). […] PI staining was used to determine the cell death by flow cytometry. One of four representative experiment is shown in (FIG. 2D). The compiled data of paired OSCCs and OSCSCs at the same concentration of WIN 55,212-2 treatment from four experiments is shown in (FIG. 2E). Four experiments were compiled and the % cell death of tumor cells by various WIN 55-212,2 concentrations (10, 25, 50 and 100 μM) were compared to the untreated control for both OSCC (FIG. 2F) and OSCSC (FIG. 2G). […] Non-linear regression was used to fit the curve of the % cell death induced by WIN 55-212,2 in various concentrations (10, 25, 50 and 100 μM) for both OSCC and OSCSC. […] The differences were clear within each independent experiment.
PI staining was used to determine the cell death by flow cytometry. Compiled data from four independent experiments performed is shown.

[3] = system: OSCCs; test: Cell count of viable cells (Trypan Blue, light microscope); type: cell-based, human; conditions: CDDP 50 μg/mL, 24 hours
Description: The number of viable cells was counted under light microscope using Trypan Blue staining. Compiled data from three independent experiments performed as shown.
The number of viable cells was counted under light microscope using Trypan Blue staining (Sigma, MO, USA).

[4] = system: OSCCs; test: Microscopy of morphology and viability; type: cell-based, human; conditions: CDDP 50 μg/mL, 24 h
Description: (§1) Chemical structure of WIN 55,212-2 (FIG. 7A). […] OSCCs and OSCSCs were treated with CDDP (50 μg/mL) and different concentrations of WIN 55,212-2 for 24 hours before the microscopic images were taken. Scale bar=50 μm (FIG. 7B).

[5] = system: OSCSCs; test: Microscopy of morphology and viability; type: cell-based, human; conditions: CDDP 50 μg/mL, 24 h
Description: as §1

[6] = system: MP2 tumor cells; test: Microscopy of morphology and viability; type: cell-based, human; conditions: CDDP 50 μg/mL, 24 hours
Description: (§2) MP2 and PL-12 tumor cells were treated with CDDP (50 μg/mL) and different concentrations of WIN 55,212-2 for 24 hours before the microscopic images were taken. Scale bar=50 μm.

[7] = system: PL-12 tumor cells; test: Microscopy of morphology and viability; type: cell-based, human; conditions: CDDP 50 μg/mL, 24 hours
Description: as §2

[8] = system: PL-12 tumor cells; test: Cell death assay (PI staining, flow cytometry); type: cell-based, human; conditions: CDDP
[9] = system: NK cells; test: NK cell cytotoxicity in humanized BLT mice (4-hr Chromium release assay); type: in vivo; conditions: hu-BLT mice, every 2 days for 3 weeks; WIN 55,212-2 2 mg/kg IP; IL-15 5 μg/mice IP; preliminary experiments
Description: Humanized BLT mice (hu-BLT; human-bone marrow/liver/thymus) were fed with, AJ2 (5×10^9 CFU/mice, every 2 days, Oral administration), WIN 55,212-2 (2 mg/kg, every 2 days, IP) and/or IL-15 (5 μg/mice, every 2 days, IP). After 3 weeks of treatment, immune cells were collected from peripheral blood, bone marrow and spleen, and CD3+ T cells were isolated from splenocytes with EasySep™ Human CD3 positive selection kit II (StemCell Tech.). PBMCs (0.5×10^6 cells) obtained from the peripheral blood were treated with IL-2 (1000 U/ml) and/or anti-CD16 antibody (BioLegend) (3 μg/ml) for 3 days, after which the cells were counted and different numbers of E:T ratios were used for the assessment of cytotoxicity using 4-hr Chromium release assay (FIG. 1A and FIG. 1B). The percentage specific cytotoxicity was calculated using the following formula (% cytotoxicity=(Experimental cpm/spontaneous cpm)/(total cpm−spontaneous cpm)) and the lytic unit 30 (Lu30/10^6) was calculated by using the inverse of the number of effector cells needed to lyse 30% of tumor target cells×100. Killing per % NK cells was determined by dividing the total Lytic unit 30 by the percentage of NK cells in each sample (FIG. 1A and FIG. 1B). […]

[10] = system: IFN-γ secretion; test: IFN-γ secretion of immune cells in humanized BLT mice (ELISA, ELISpot); type: in vivo; conditions: hu-BLT mice, every 2 days for 3 weeks; WIN 55,212-2 2 mg/kg IP; IL-15 5 μg/mice IP
Description: Humanized BLT mice (hu-BLT; human-bone marrow/liver/thymus) were fed with, AJ2 (5×10^9 CFU/mice, every 2 days, Oral administration), WIN 55,212-2 (2 mg/kg, every 2 days, IP) and/or IL-15 (5 μg/mice, every 2 days, IP). After 3 weeks of treatment, immune cells were collected from peripheral blood, bone marrow and spleen, and CD3+ T cells were isolated from splenocytes with EasySep™ Human CD3 positive selection kit II (StemCell Tech.). PBMCs (0.5×10^6 cells) obtained from the peripheral blood were treated with IL-2 (1000 U/ml) and/or anti-CD16 antibody (BioLegend) (3 μg/ml) for 3 days, after which the cells were counted and different numbers of E:T ratios were used for the assessment of cytotoxicity using 4-hr Chromium release assay (FIG. 1A and FIG. 1B). The percentage specific cytotoxicity was calculated using the following formula (% cytotoxicity=(Experimental cpm/spontaneous cpm)/(total cpm−spontaneous cpm)) and the lytic unit 30 (Lu30/10^6) was calculated by using the inverse of the number of effector cells needed to lyse 30% of tumor target cells×100. Killing per % NK cells was determined by dividing the total Lytic unit 30 by the percentage of NK cells in each sample (FIG. 1A and FIG. 1B). PBMCs (0.5×10^6 cells) obtained from the blood were treated with IL-2 (1000 U/ml) and/or anti-CD16 antibody (BioLegend) (3 μg/ml) for 24 hours, after which the supernatants were collected to measure IFN-g secretion using ELISA (BioLegend, San Diego) (FIG. 1C). ELISpot was used to determine the IFN-γ spots in PBMC (FIG. 1D), bone marrow (FIG. 1E), spleen (FIG. 1F) and CD3+ T cells (FIG. 1G).
Humanized BLT mice (hu-BLT; human-bone marrow/liver/thymus) were fed with, AJ2 (5×10^9 CFU/mice, every 2 days, Oral administration), WIN 55,212-2 (2 mg/kg, every 2 days, IP) and/or IL-15 (5 μg/mice, every 2 days, IP). After 3 weeks of treatment, immune cells were collected from peripheral blood, bone marrow and spleen, and CD3+ T cells were isolated from splenocytes with EasySep™ Human CD3 positive selection kit II (StemCell Tech.). PBMCs (0.5×10^6 cells) obtained from the peripheral blood were treated with IL-2 (1000 U/ml) and/or anti-CD16 antibody (BioLegend) (3 μg/ml) for 3 days, after which the cells were counted and different numbers of E:T ratios were used for the assessment of cytotoxicity using 4-hr Chromium release assay (FIG. 6A and FIG. 6B). The percentage specific cytotoxicity was calculated using the following formula (% cytotoxicity=(Experimental cpm/spontaneous cpm)/(total cpm−spontaneous cpm)) and the lytic unit 30 (Lu30/10^6) was calculated by using the inverse of the number of effector cells needed to lyse 30% of tumor target cells×100. Killing per % NK cells was determined by dividing the total Lytic unit 30 by the percentage of NK cells in each sample (FIG. 6A and FIG. 6B). PBMCs (0.5×10^6 cells) obtained from the blood were treated with IL-2 (1000 U/ml) and/or anti-CD16 antibody (BioLegend) (3 μg/ml) for 24 hours, after which the supernatants were collected to measure IFN-g secretion using ELISA (BioLegend, San Diego) (FIG. 6C). ELISpot was used to determine the IFN-γ spots in PBMC (FIG. 6D), bone marrow (FIG. 6E), spleen (FIG. 6F) and CD3+ T cells (FIG. 6G).

C=C(C)[C@@H]1CCC(C)=C[C@H]1c1c(O)cc(CCCCC)cc1O [CBD]
enhancement of anti-proliferative effects of radiation therapy [1]: failed to enhance

N.N.[Cl][Pt][Cl] [CDDP, cis-diamminedichloridoplatinum(II)]
cell death, OSCCs compared with OSCSCs [2]: triggered more cell death in OSCCs when compared to OSCSCs | inhibition of cell growth, OSCCs compared with OSCSCs [3]: inhibit cell growth of OSCCs more than those seen with OSCSCs | morphology and attachment [4]: loss of morphology, and the majority were detached from the plates | morphology and attachment [5]: the majority of these cells were still attached to the cell culture plate | morphology [6]: affected both PL-12 and MP2 tumors morphologically | morphology [7]: affected both PL-12 and MP2 tumors morphologically | cell death, PL-12 compared with MP2 ([8]; compiled data): similar | cell death, PL-12 compared with MP2 ([8]; representative experiment): higher in PL-12

CCCCCc1cc(O)c2c(c1)OC(C)(C)[C@@H]1CCC(C)=C[C@@H]21 [THC, tetrahydrocannabinol]
enhancement of anti-proliferative effects of radiation therapy [1]: failed to enhance

CCCCCCC(C)(C)c1cc(O)c2c(c1)OC(C)(C)C1CCC(=O)CC21 (stereo not shown) [nabilone]
enhancement of anti-proliferative effects of radiation therapy [1]: failed to enhance

IL-15: IL-15, given by intraperitoneal injection 5 μg/mice
cytotoxic function of NK cells in PBMC [9]: increased the NK cytotoxicity | IFN-γ secretion (ELISA, PBMCs) [10]: increased
